From ChEMBL document CHEMBL1201862, “PubChem BioAssay data set” (2004) come the findings set out here.

Each structure is given as a SMILES string.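 Five concentrations, 48 hours, 96-well plates. At the GI50, growth is halved.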 Activity calls are given as the source filed them. Cut-off read from the data, not from the text of the source: active = GI50 up to about 1.1 µM and inactive = higher.

Holding throughout (assay): inhibition of tumour cell growth, NCI panel, 48 h
The subject of test [1] is UO-31.
Test [2] concerns SK-MEL-2.
Test [3] relates to PC-3.
Test [4] deals with SNB-75.
The test system of test [5] is OVCAR-5.
Test [6] concerns NCI-H522.
Test [7] relates to Hs-578T.
The subject of test [8] is A498.
In test [9] the test system is HOP-62.
Test [10] relates to SK-MEL-28.
Test [11] deals with MOLT-4.
Test [12] concerns RPMI-8226.
For test [13], the system named is Malme-3M.
For test [14], the system named is COLO 205.
Test [15] has as its system HT-29.
For test [16], the system named is SW-620.
Test [17] deals with CCRF-CEM.
Test [18] concerns MCF7.
The test system of test [19] is HOP-92.
For test [20], the system named is NCI-H226.

`N#CC(c1ccccc1)(c1ccccc1)[C@@H](c1ccccc1)[C@H](Cc1ccccc1)NS(=O)(=O)c1ccccc1`: the GI50 in test [1] is > 100 µM (inactive); in test [2], > 100 µM (inactive); in test [3] it was 46.7 µM (inactive); in [4], > 100 µM (inactive); in test [5], > 100 µM (inactive); in test [6], > 100 µM (inactive). The GI50 in test [7] was > 100 µM (inactive); in test [8], > 100 µM (inactive); in test [9], > 100 µM (inactive); in test [10], > 100 µM (inactive); in test [11], 15.7 µM (inactive); in test [12], 10.3 µM (inactive). The GI50 in test [13], in [14], in [15], in [16], in test [17] and in test [18] was > 100 µM (inactive) in each case.
`Cn1c2ccccc2c(=NNc2ccc(S(N)(=O)=O)cc2)c2ccccc21`: the GI50 in test [1] was 10.7 µM (inactive); in test [2], 10.5 µM (inactive); in test [3] it was 9.75 µM (inactive); in [4], 15.1 µM (inactive); in [5] it was 24.4 µM (inactive); in test [6], 11.2 µM (inactive). For the same compound, the GI50 was 32.7 µM (inactive) in test [7]; 15.3 µM (inactive) in test [9]; 18.6 µM (inactive) in test [10]; 3.95 µM (inactive) in test [11]; 9.35 µM (inactive) in test [12]; 17.9 µM (inactive) in test [13]. For the same compound, the GI50 is 18.7 µM (inactive) in [14]; 17.6 µM (inactive) in [15]; 8.85 µM (inactive) in test [19]; 10.9 µM (inactive) in test [20]; 21.8 µM (inactive) in test [16]; 4.58 µM (inactive) in test [17]. The GI50 in test [18] is 13.6 µM (inactive).
Turning to `Cc1ccc(/C=C2\N=C(N3CCOCC3)NC2=O)cc1`, the GI50 in test [1], in [2], in test [3], in test [4], in test [5] and in [6] was > 100 µM (inactive) throughout. In addition, the GI50 was > 100 µM (inactive) in [7]; 77.6 µM (inactive) in [9]; > 100 µM (inactive) in [10]; > 100 µM (inactive) in test [11]; > 100 µM (inactive) in test [12]; > 100 µM (inactive) in test [13]. In addition, the GI50 in test [14], in [15], in [19], in test [20], in [16] and in test [17] was > 100 µM (inactive) throughout. For the same compound, the GI50 in test [18] is > 100 µM (inactive).
Turning to `C=CCCC(CCC=C)(C(=O)O)C(=O)O`, the GI50 in test [1], in [2], in test [3], in test [4], in test [5] and in [6] was > 100 µM (inactive) in each case. Moreover, the GI50 in [7], in [9], in [10], in test [11], in test [12] and in [13] was > 100 µM (inactive) throughout. For the same compound, the GI50 in [14], in [15], in test [16], in test [17] and in test [18] was > 100 µM (inactive) throughout.
As to `N#CC(NC12CC3CC(CC(C3)C1)C2)c1ccc2c(c1)OCO2` (stereo not drawn), the GI50 in [1], in [2], in test [3], in [4], in test [5] and in test [6] was > 100 µM (inactive) in each case. For the same compound, the GI50 in [7], in test [9], in [10], in test [11], in [12] and in test [13] was > 100 µM (inactive) in each case. Also, the GI50 in test [14] was > 100 µM (inactive); in [15] it was > 100 µM (inactive); in test [19], 89.1 µM (inactive); in test [20], > 100 µM (inactive); in [16] it was > 100 µM (inactive); in test [17], > 100 µM (inactive). Moreover, the GI50 in test [18] is > 100 µM (inactive).
Consider `Cn1c2c(c3ccccc31)CCN1C(=O)CN(C(=O)C3CCCCC3)CC21` (stereo not drawn), for which the GI50 in test [1], in test [2], in test [3], in test [4], in [5] and in test [6] was > 100 µM (inactive) throughout. The GI50 in test [7], in test [9], in test [10], in test [11], in test [12] and in test [13] was > 100 µM (inactive) in each case. Also, the GI50 in test [14], in test [15], in test [19], in test [20], in test [16] and in test [17] was > 100 µM (inactive) each time. Further, the GI50 in test [18] was > 100 µM (inactive).
For `N#CCc1nc(-c2cc3c(ccc4ccccc43)oc2=O)cs1`, the GI50 in [1] is 38.9 µM (inactive); in test [2], 23.1 µM (inactive); in test [3] it was 65.5 µM (inactive); in [4], 0.507 µM (active); in [5] it was > 100 µM (inactive); in [6], 13 µM (inactive). Also, the GI50 was 20.3 µM (inactive) in test [7]; 16.7 µM (inactive) in test [9]; 72.6 µM (inactive) in test [10]; > 100 µM (inactive) in test [11]; > 100 µM (inactive) in [12]; > 100 µM (inactive) in [13]. For the same compound, the GI50 in test [14] was > 100 µM (inactive); in test [15], 73.1 µM (inactive); in test [19], 20.3 µM (inactive); in test [20] it was 24.7 µM (inactive); in test [16], 91.8 µM (inactive); in test [17], > 100 µM (inactive). In addition, in test [18], the GI50 was 38.3 µM (inactive).
Turning to `Cc1ccc(S(=O)(=O)NC(=O)NC(CC(=O)O)C(=O)O)cc1` (stereo not drawn), the GI50 in test [1], in [2], in [3], in [4], in test [5] and in test [6] was > 100 µM (inactive) each time. The GI50 in test [7], in [9], in [10], in [11], in test [12] and in test [13] was > 100 µM (inactive) throughout. The GI50 in test [14], in test [15], in test [19], in [16], in test [17] and in test [18] was > 100 µM (inactive) throughout.
With `CC(=O)CSc1c(-c2ccccc2)c(=O)n(-c2ccccc2)c(=S)n1-c1ccccc1`, the GI50 in [1] was > 100 µM (inactive); in test [2] it was > 100 µM (inactive); in [3] it was > 100 µM (inactive); in test [4], 61.2 µM (inactive); in [5], > 100 µM (inactive); in [6] it was > 100 µM (inactive). Besides, the GI50 in [7] is 82.2 µM (inactive); in test [9], > 100 µM (inactive); in test [10] it was > 100 µM (inactive); in test [11] it was 47.4 µM (inactive); in test [12], > 100 µM (inactive); in test [13], > 100 µM (inactive). Further, the GI50 in test [14], in [15], in test [19], in [20], in test [16] and in test [17] was > 100 µM (inactive) in each case. Moreover, the GI50 in test [18] is > 100 µM (inactive).
`CC[C@]1(Cc2ccc(OC)c(OC)c2)C=[N+]([O-])O[C@H](OC2CCCC2(c2ccccc2)c2ccccc2)[C@@H]1OC(=O)c1ccccc1` (stereo partly drawn): the GI50 was 6.7 µM (inactive) in test [1]; 8 µM (inactive) in test [2]; 5.47 µM (inactive) in test [3]; 6.62 µM (inactive) in test [4]; 22.3 µM (inactive) in test [5]; 3.87 µM (inactive) in [6]. The GI50 in [7] was > 100 µM (inactive); in test [9], 9.89 µM (inactive); in [10], 20.8 µM (inactive); in test [11], 2.63 µM (inactive); in test [14], 8.79 µM (inactive); in test [15] it was 3.57 µM (inactive). Besides, the GI50 was 3.02 µM (inactive) in [19]; 18 µM (inactive) in [20]; 8.87 µM (inactive) in test [16]; 3.27 µM (inactive) in test [17]; 3.38 µM (inactive) in test [18].
In the case of `Cc1cc(/N=C/c2ccc(C#N)cc2)n(-c2ccccc2)n1`, the GI50 was > 100 µM (inactive) in test [1]; > 100 µM (inactive) in test [2]; 89.1 µM (inactive) in test [3]; 57 µM (inactive) in test [4]; > 100 µM (inactive) in [5]; 72.4 µM (inactive) in [6]. For the same compound, the GI50 in test [7] is 44.2 µM (inactive); in [9] it was 68.9 µM (inactive); in test [10], > 100 µM (inactive); in [11], 42.6 µM (inactive); in [12] it was 26.2 µM (inactive); in [13] it was > 100 µM (inactive). Moreover, the GI50 in test [14] is 31.3 µM (inactive); in [15], 47.8 µM (inactive); in [19], > 100 µM (inactive); in test [20], > 100 µM (inactive); in test [16] it was 49.4 µM (inactive); in [17], 30.8 µM (inactive). In test [18], the GI50 is 41.1 µM (inactive).
